# Assay results as given in patent US10816552B2 (The Governing Council of the University of Toronto, priority 2014, dated 2020).
# Tests used:
# [1] = 1H NMR stability in d-DMSO under dry ambient atmosphere, 24 h; type: physicochemical; settings: for degradation over 24 hours (1H NMR): 24 hr incubation
# Description: FIGS. 2A-C show the results of ^1H NMR stability experiments for exemplary compounds 1-11. (A) Compounds 1, 2 and 7. (B) Compounds 3, 4, 5 and 6. (C) Compounds 8, 9, 10 and 11. The organotellurium compounds (˜150 μM) were dissolved in d-DMSO with 1,3,5-trioxane, the secondary internal standard. The compounds were kept in clear glass 20 mL vials. The vials were kept in a moisture free environment for 24 hours with continuous supply of ambient atmosphere dried using a series of bubblers containing phosphoric acid, potassium hydroxide and calcium sulfate. Aliquots were analyzed by ^1H NMR and the organotellurium signals and the d5-H-DMSO peaks were integrated. The ratio between the DMSO and the organotellurium protons at time 0 were taken and normalized to generate a degradation plot. Experimental error was calculated by generating triplicate integration data from each individual preliminary NMR data. This error takes into consideration of integration bias and instrument fluctuations.
# The relative chemical stability of the methyl telluroethers (1-4) were quantified using ^1H NMR by integration of the CH3—Te signals with respect to a residual DMSO-d5 internal standard. Samples were prepared in a solution of DMSO-d6 and placed under a slow continuous stream of dry ambient atmosphere in a clear glass desiccator. This setup allowed the compound's stability to be monitored without interference from atmospheric water (FIG. 2).
# [2] = system: Jurkat cells; experiment: Metabolic toxicity assay (WST-1) in Jurkat cells; type: cell-based; settings: for LD50 / LD50 (metabolic toxicity): Jurkat cells, 24 hour incubation, WST-1
# Description: FIGS. 7A, B and C show a) and b) the cell proliferation rate of HCT116 cells as a function of time in the presence of various concentrations of the exemplary compound, Telox-2 (confluency analysis); and c) the metabolic toxicity of the exemplary compound, Telox-2, in Jurkat cells as measured by reduction of WST-1. Cells were incubated with Telox-2 for 24 hours prior to a 30 minute exposure to WST-1.
# A 96 well clear fluorometer plate was loaded with 200 μL of Jurkat cells at a culture density of 1×10^6 cells per mL. To each well was added an appropriate amount of a stock solution of Telox/Telox2 in sterile DMSO to reach a desired concentration of Telox/Telox2 (1-1000 micromole). The concentration of DMSO was 1% in all wells. Cells were allowed to incubate for 24 h at 37° C. under normal atmosphere, after which 20 μL of a commercially available solution of WST-1 in PBS (Roche Diagnostics, product #05015944001) was added to each well (gentle pipetting evenly distributed the reagent throughout the well). Cells were allowed to incubate for a further 0.5 h at 37° C. under normal atmosphere, followed by subsequent measurement of the absorbance of each well at 450 nm using a TECAN Safire 2 plate reader. Data was background corrected vs. wells that contained cell growth media (without cells), an appropriate concentration of Telox2, a final concentration of DMSO=1%, and WST-1. Background correction wells were incubated in the same manner as described for cell-positive wells.
# To investigate the organotellurium compounds of study as potential probe moieties for MC, the metabolic toxicity of the compounds was evaluated. Organotellurium compounds are often described as toxic, with aryl telluroethers showing cellular toxicity below 100 μM across a range of cell lines under different assay conditions.^9-11,38,39 The toxicity of compounds 8-11 was investigated in a commonly used Jurkat cell line after a 24 hour incubation using the metabolic probe WST-1 (Roche Diagnostics, Laval, Quebec) as per manufacturer's instructions. As compounds 8, 9 and 10 are expected to show degradation over the time frame of the toxicity assay, based on the NMR stability studies, these experiments show the relative toxicity of the compounds and their resulting degradation products (Table 2). […] The LD50 values of the exemplary organotellurium compounds of the present application provide promise for their use as activity based MC probes since the general MC experiment can be achieved at concentrations of ˜100 μM.^5
# [3] = Solubility observations; type: physicochemical
# [4] = NMR degradation in 50/50 d-DMSO/PBS buffer, air and ambient light; type: physicochemical; settings: air, ambient lighting, room temperature
# From the text: The ^19F NMR of compound 10 and ^1H NMR of compound 11 were taken at shown time points. Compound 10 used trifluoroacetic acid as the internal standard and compound 11 used d5-DMSO.
# To further validate these compounds as potential MC mass tags, the degradation was also studied in a buffered aqueous solution by dissolving the compounds in a 50/50 solution of d-DMSO/PBS buffer. The compounds were kept in an environment exposed to air and ambient lighting at room temperature. ^19F NMR was used to study compound 10 using a trifluoroacetic acid internal standard while ^1H NMR was used to study the degradation compound 11 using the d5-DMSO internal standard. […] However, under the same conditions the tellurophene 11 was stable.
# [5] = system: HCT116 cells; experiment: Mass cytometry hypoxia labelling (130Te signal); type: cell-based
# From the text: FIGS. 4A-E show a schematic representation and density maps and plots. FIG. 4A is a schematic representation of Telox/Telox2 cell labelling for analysis via mass cytometry on a second-generation CyTOF instrument. FIG. 4b) is a density map of signal event length vs. ^130Te signal (arbitrary units). FIG. 4c) is a density plot output from the top-right gate in b) of ^193Ir signal (arbitrary units) vs. ^103Rh signal (arbitrary units). More than 93% of detected events fall in the square gate. FIG. 4d) is a density plot output from the bottom-left gate in b) of ^193Ir signal (arbitrary units) vs. ^103Rh signal (arbitrary units). More than 89% of detected events fall in the square gate. FIG. 4e) is a population histograms of cell ^130Te content (arbitrary units). Oxygen concentrations are listed as numerical percentages, P=Pimonidazole (100 μM). Blue and red histograms are Pimonidazole-negative controls. Orange and green histograms are Pimonidazole- positive competition experiments. Note: warmer colors in density plots indicate higher cell population density.
# FIGS. 8A and B show a) the absolute ^130Te signal as a function of concentration as determined by mass cytometry analysis of HCT116 cells incubated with the exemplary compound, Telox-2, for 3 hours in either near-anoxic (˜0% O2), hypoxic (˜1% O2) or normoxic (21% O2) atmosphere; and b) the signal-to-noise (fold-change) representation of the data presented in part a.
# FIGS. 9A-D show a) Absolute ^130Te signal as a function of time as determined by mass cytometry analysis of HCT116 cells incubated with 10 μM of the exemplary compound,Telox-2 (constant exposure), in either near-anoxic (˜0% O2), hypoxic (˜1% O2) or normoxic (21% O2) atmosphere; b) the signal-to-noise (fold-change) representation of the data presented in part a; and c) the absolute ^130Te signal as a function of time as determined by mass cytometry analysis of HCT116 cells incubated with 10 μM Telox-2 for 3 hours followed by replacement of Telox-2-containing media with fresh media in either near-anoxic (˜0% O2), hypoxic (˜1% O2) or normoxic (21% O2) atmosphere; and d) the signal-to-noise (fold-change) representation of the data presented in part c.
# HCT116 (500,000) cells were seeded in 60 mm plastic petri dishes (Corning Inc., NY) and incubated for 24 h at 37° C., 21% O2/5% CO2. The cells were transferred to hypoxia chambers (H35/H85 hypoxia workstation, Don Whitley Scientific) maintained at 1%/0.2% or <0.02% O2 for 3 h. Hypoxia experiments (<0.02% O2) were performed by seeding the cells in 60 mm glass plates (Corning Inc., NY).
# HCT 116 cells (see sections i and ii) were incubated in media containing Telox or Telox2 (100 μM, added as a neat solution in sterile DMSO; final [DMSO]=0.1%) for 3 hours under atmosphere containing an appropriate concentration of O2. Following incubation, the media was removed, cells were washed with sterile PBS, and then separated from the incubation plate via trypsinization (37° C., 10 min) and gentle scraping. The cell suspension was pelleted and resuspended in PBS containing β-ME (1.0 mL, 100 mM). Cells were pelleted, resuspended in PBS (900 μL, no β-ME), and fixed with formaldehyde (100 μL, 37% solution) for 25 minutes. Following fixation, cells were pelleted, resuspended in PBS containing β-ME (1.0 mL, 100 mM), and pelleted once again. Cells were then resuspended in PBS ([…], no β-ME) and incubated with either the Ir-containing nucleic acid intercalator (hypoxic cells) or the Rh containing nucleic acid intercalator (normoxic cells) (10 μL, 100 μM solution in sterile PBS) for 20 minutes. Cells were then pelleted and resuspended in PBS (1.0 mL, no β-ME) twice. Cell pellets were then resuspended in PBS containing ^151/153EU beads (1/10 dilution of CyTOF® calibration beads, DVS Sciences, 1.0-2.5 mL depending on pellet size). The two cells samples were then combined (250 μL of each) and 250 μL of the resultant sample was injected onto a second-generation CyTOF® instrument for MC analysis. […]
# [6] = Stability of the Telox telluroether (summary statement); type: physicochemical
compound,measurement,setting,value
"C[Te]CCCO [Compound 2, 3-methyltellanyl-1-propanol]",degradation over 24 hours (1H NMR),[1],approximately 75%
"COC(=O)CC[Te]C [Compound 3, methyl 3-methyltellanyl-propionate]",degradation over 24 hours (1H NMR),[1],~85%
"COC(=O)CCC[Te]C [Compound 4, methyl 4-methyltellanyl-butanoate]",degradation over 24 hours (1H NMR),[1],approximately 15%
"COC(=O)CCC[Te]C(F)(F)F [Compound 5, methyl 4-((trifluoromethyl)tellanyl)butanoate]","degradation over 24 hr incubation (1H NMR), in words",[1],no degradation was observed
O=C(O)CCc1ccc[te]1 [Compound 6],"degradation over 24 hr incubation (1H NMR), in words",[1],degraded insignificantly
"OCCc1ccc[te]1 [Compound 7, 2-(tellurophen-2-yl)ethan-ol]","degradation over 24 hr incubation (1H NMR), in words",[1],degraded insignificantly
C[Te]CCCOC(=O)NCc1ccccc1 [Compound 8],LD50,[2],610 ± 290 µM
same,LD50 (metabolic toxicity),[2],610 µM
same,"solubility, in words",[3],lack of solubility
"C[Te]CCCC(=O)NCc1ccccc1 [Compound 9, N-benzyl-4-(methyltellanyl)butanamide]",LD50,[2],180 ± 60 µM
"O=C(CCC[Te]C(F)(F)F)NCc1ccccc1 [Compound 10, N-benzyl-4-((trifluoromethyl)tellanyl)butamide]","degradation over 24 hr incubation (1H NMR), in words",[1],stable
same,LD50,[2],130 ± 20 µM
same,degradation after 24 hours in d-DMSO/PBS,[4]; 19F NMR,60%
"O=C(CCc1ccc[te]1)NCc1ccccc1 [Compound 11, N-benzyl-3-(tellurophen-2-yl)propanamide]","degradation over 24 hr incubation (1H NMR), in words",[1],stable
same,LD50,[2],280 ± 30 µM
same,LD50 (metabolic toxicity),[2],280 µM
same,"stability in d-DMSO/PBS, in words","[4]; 1H NMR, 24 hours",stable
C[Te]CCCOC(=O)NCCNC(=O)Cn1ccnc1[N+](=O)[O-] [Telox],"metabolic LD50, in words","[2]; Telox, summary statement",close to the required assay concentration
same,"detected events in the square gate, top-right (130Te) gate, 193Ir vs 103Rh",[5]; FIG. 4c,More than 93%
same,"detected events in the square gate, bottom-left (130Te) gate, 193Ir vs 103Rh",[5]; FIG. 4d,More than 89%
same,"stability of telluroether functionality, in words",[6],moderate stability
